The test system of series [1] is phospho-GSK3 (Ser9). Briefly: Cellular pGSK3 assay (phospho-GSK3 ELISA). The format is cell-based. Particulars: Homo sapiens, MCF7 cells, 48 h, read-out: Cellular pGSK3 pathway assay. The method, then:
In order to study the cellular activity of the compounds according to the present invention, an ELISA-based assay has been established for the phosphorylated protein glycogen synthetase kinase 3 (GSK3). The assay is based on a solid phase sandwich ELISA that detects endogenous levels of phosphorylated GSK3 using a phospho-GSK3 (Ser9) specific antibody (BioSource International, Inc.; Catalog #KHO0461). After incubation with cell lysates, the coated antibody captures the phosphorylated GSK3 protein. Following extensive washing, GSK3 polyclonal antibody is added to detect the captured phospho-GSK3 protein. Secondary antibody (anti-rabbit IgG-HRP) is then used to recognize the bound detection antibody. After the second incubation and washing to remove all the excess anti-rabbit IgG-HRP, a substrate solution is added, which is acted upon by the bound enzyme to produce color. The intensity of this colored product is directly proportional to the concentration of GSK-3β [pS9] present in the original specimen.
MCF7 cells (ATCC HTB-22) were seeded into 96 well fate bottom plates at a density of 10000 cells/well. […] Cells were harvested and lysed in cell extraction buffer (10 mM Tris, pH 7.4, 100 mM NaCl, 1 mM EDTA, 1 mM EGTA, 1 mM NaF, 20 mM Na4P2O7, 2 mM Na3VO4, 1% Triton X-100, 10 vol % glycerol, 0.1 vol % SDS, 0.5 vol % deoxycholate, 1 mM phenylmethylsulfonylfluorid (PMSF)). The lysate were centrifuged for 10 min. at 4° C. and the supernatant were transferred to a new tube. 50 μl of sample diluent (standard diluent buffer, Biosource) were added and 100 μl of cell lysate transferred into the tube and vortexed. 100 μl of each diluted cell lysate were added to the appropriate ELISA well plate and incubated for 3 h at room temperature. The plates were washed 4 times with 1× wash buffer (Biosource). 50 μl of detection antibody (GSK3 (Ser9) detection antibody; BioSource) were added to each well and incubated for 30 min. at room temperature. The washing procedure was repeated between each step. 100 μl of HRP-linked secondary antibody (anti-mouse IgG HRP-linked antibody) were added to each well and incubated for 30 min. at room temperature. 100 μl of TMB substrate (0.05 vol % 3,3′,5,5′ tetramethylbenzidine, 0.1 vol % hydrogen peroxide, complex polypeptides in a buffered solution; Biosource) were added to each well and incubated for 30 min. at room temperature. Finally 100 μl of Stop solution (0.05 vol % α and β unsaturated carbonyl compound) were added to each well and the plate were shaked gently for a few seconds. The absorbance was measured at ? 450 nm (Wallac Victor2; Perkin Elmer, USA) within 30 min. after adding the stop solution.
The analysis of the data was performed using a statistical program (Excel; Microsoft, USA) and the IC50 of pGSK3 inhibition was determined.
On the technique in general: In an ELISA, binding on a coated surface is turned into a signal by an enzyme label.

In series [2] the test system is OvCAR3 cells. Briefly: Cellular proliferation/cytotoxicity assay (Alamar Blue), OvCAR3 cells. The format is cell-based. To be noted: Homo sapiens, OVCAR-3, 72 h, Alamar Blue (Resazurin), read-out: Anti-proliferative/Cytotoxic activity (OvCAR3 cells). The text has this:
Viabilities are expressed as % values.
In general terms: Resazurin is reduced to fluorescent resorufin, in cell work by metabolically active cells.

The test system of series [3] is A549 cells. Briefly: Cellular proliferation/cytotoxicity assay (Alamar Blue), A549 cells. Particulars: Homo sapiens, A549, 72 h, read-out: Anti-proliferative/Cytotoxic activity (A549 cells).
Description: (§1) The anti-proliferative activity of the compounds as described herein, is evaluated using the OvCAR3, HCT116 and A549 cell lines and the Alamar Blue (Resazurin) cell viability assay (O'Brien et al. Eur J Biochem 267, 5421-5426, 2000). Resazurin is reduced to the fluorescent resorufin by cellular dehydrogenase activity, correlating with viable, proliferating cells. Test compounds are dissolved as 10 mM solutions in DMSO and subsequently diluted. Cells like HCT116 or A549 cells were seeded into 96 well flat bottom plates at a density of 10000 cells/well (OvCAR3 cells), 1000 cells/well (HCT116 cells) or 2000 cells/well (A549 cells) in a volume of 200 μl/well. 24 hours after seeding, 1 μl each of the compound dilutions are added into each well of the 96 well plates. Each compound dilution is tested as at least as duplicates. Wells containing untreated control cells were filled with 200 μl DMEM (Dulbecco's Modified Eagle Medium) containing 0.5 vol % v:v DMSO. The cells are then incubated with the substances for 72 h at 37° C. in a humidified atmosphere containing 5 vol % CO2. To determine the viability of the cells, 20 μl of a Resazurin solution (90 mg/l) are added. After 4 h incubation at 37° C., the fluorescence is measured by extinction at ? =544 nm and an emission of ? =590 nm (Wallac Victor2; Perkin Elmer, USA). For the calculation of the cell viability, the emission value from untreated cells is set as 100% viability and the fluorescence intensity of treated cells are set in relation to the values of untreated cells. Viabilities are expressed as % values. The corresponding IC50 values of the compounds for cytotoxic activity are determined from the concentration-effect curves by means of non-linear regression. The analysis of the data is performed using a biostatistical program (Graph Pad Prism, USA).
Series [4] has as its system phospho-Akt (Ser473). Briefly: Cellular PI3K/Akt pathway assay (phospho-Akt ELISA). Type of series: cell-based. To be noted: MCF7 cells, β-Heregulin stimulated, 48 h, phospho-Akt1 (Ser473) ELISA. The method, then:
In order to study the cellular activity of the compounds according to the present invention, an Enzyme Linked Immunosorbent Assay (ELISA)-based assay has been used specific phospho-AKT. The assay is based on a Sandwich ELISA kit (PathScan™ Phospho-Akt1 (Ser473); Cell Signaling, USA; #7160).
The ELISA Kit detects endogenous levels of phosphorylated Akt protein. A phospho-Akt (Ser473) antibody (Cell Signaling, USA; #9271) has been coated onto the microwells. After incubation with cell lysates, the coated antibody captures the phosphorylated Akt protein. Following extensive washing, Akt1 monoclonal antibody (Cell Signaling, USA; #2967) is added to detect the captured phospho-Akt1 protein. HRP-linked anti-mouse antibody (HRP: horseradish peroxidase; Cell Signaling, USA; #7076) is then used to recognize the bound detection antibody. HRP substrate (=3,3′,5,5′-tetramethylbenzidine (TMB); Cell Signaling, USA; #7160) is added to develop colour. The magnitude of optical density for this developed color is proportional to the quantity of phosphorylated Akt protein. MCF7 cells (ATCC HTB-22) are seeded into 96 well fate bottom plates at a density of 10000 cells/well. 24 hours after seeding, the cells are serum starved using low-serum medium (IMEM media including 0.1% charcoal treated FCS (FCS: fetal calf serum)). […] To stimulate Akt phosphorylation, β-Heregulin (20 ng/ml β-HRG) is added in parallel to the compounds. Wells containing unstimulated control cells (no β-Heregulin stimulation) are incubated with or without the diluted compound. Wells containing untreated control cells (no compound) are filled with medium containing 0.5% v:v DMSO and are or are not stimulated with β-Heregulin.
Cells are harvested and lysed with brief sonification in 1× cell lysis buffer (20 mM Tris (pH7.5), 150 mM NaCl, 1 mM ethylene diaminetetraacetate (EDTA), 1 mM ethylene glycolbis(2-aminoethyl)-N,N,N′,N′-tetraacetic acid (EGTA), 1 vol % Triton X-100, 2.5 mM sodium pyrophosphate, 1 mM β-glycerolphosphate, 1 mM Na3VO4, 1 μg/ml leupeptin). The lysate is centrifuged for 10 min. at 4° C. and the supernatant is transferred to a new tube. 100 μl of sample diluent (0.1 vol % Tween-20, 0.1 vol % sodium azide in phosphate buffered saline (PBS)) are added to a microcentrifuge tube and 100 μl of cell lysate are transferred into the tube and vortexed. 100 μl of each diluted cell lysate are added to the appropriate ELISA well, and incubated overnight at 4° C. The plates are washed 4 times with 1× wash buffer (1 vol % tween-20, 0.33 vol % thymol, in PBS). Next 100 μl of detection antibody (Akt1 (2H10) monoclonal detection antibody; Cell Signaling, USA; #2967) are added to each well and incubation continued for 1 h at 37° C. The washing procedure is repeated between each step. 100 μl of secondary antibody (anti-mouse IgG HRP-linked antibody; Cell Signaling, USA; #7076) are added to each well and incubated for 30 min. at 37° C. Than, 100 μl of TMB substrate (0.05% 3,3′,5,5′ tetramethylbenzidine, 0.1% hydrogen peroxide, complex polypeptides in a buffered solution; Cell Signaling, USA; #7160) are added to each well and incubated for 30 min. at 25° C. Finally 100 μl of STOP solution (0.05 vol % α and β unsaturated carbonyl compound) are added to each well and the plate are shaked gently. The absorbance is measured at ? 450 nm (Wallac Victor2; Perkin Elmer, USA) within 30 min. after adding the STOP solution. The analysis of the data is performed using a statistical program (Excel; Microsoft, USA). Preferred compounds show an inhibitory activity towards Akt phosphorylation below 10 μM.

Series [5] has as its system A549 cells.
Description: as §1

Read-outs that look alike come from different tables or passages of the source.

For 5 molecules, IC50 results are on record in patent US9387204B2, “Fused bicyclic imidazoles” (BAYER INTELLECTUAL PROPERTY GmbH, priority 2007, dated 2016).

Take `Fc1ccccc1-c1c(-c2ccc(CN3CCC(c4n[nH]c(-c5ccccn5)n4)CC3)cc2)nc2ncccn12` [Example 41, 3-(2-fluorophenyl)-2-(4-{[4-(5-pyridin-2-yl-1,2,4-triazol-3-yl)piperidin-1-yl]methyl}phenyl)imidazo[1,2-a]pyrimidine]: the IC50 in series [1] was 1 to 10 µM; in series [2], below 10 µM; in series [3], above 10 µM.
On to `c1ccc(-c2nc(C3CCN(Cc4ccc(-c5nc6sccn6c5-c5nccs5)cc4)CC3)n[nH]2)nc1` [Example 42, 6-(4-{[4-(5-pyridin-2-yl-1,2,4-triazol-3-yl)piperidin-1-yl]methyl}phenyl)-5-(1,3-thiazol-2-yl)imidazo[2,1-b][1,3]thiazole], for which the values for the IC50 in series [1], in series [2] and in series [3] were above 10 µM, below 10 µM and below 10 µM, respectively.
With `Fc1cc(F)c2nc(-c3ccc(CN4CCC(c5nnc(-c6ccccn6)[nH]5)CC4)cc3)c(-c3ccccc3)n2c1` [Example 44, 6,8-Difluoro-3-phenyl-2-{4-[4-(5-pyridin-2-yl-4H-[1,2,4]triazol-3-yl)-piperidin-1-ylmethyl]-phenyl}-imidazo[1,2-a]pyridine], the IC50 in series [4] (Homo sapiens) was below 1 µM; in series [1], 1 to 10 µM; in series [2] it was below 10 µM; in series [3], above 10 µM.
On to `Cc1cn2c(-c3ccccc3)c(-c3ccc(CN4CCC(c5nnc(-c6ccccn6)[nH]5)CC4)cc3)nc2s1` [Example 46, 2-methyl-5-phenyl-6-[4-({4-[5-(pyridin-2-yl)-4H-1,2,4-triazol-3-yl]piperidin-1-yl}methyl)phenyl]imidazo[2,1-b][1,3]thiazole], for which the IC50 in series [4] (Homo sapiens) was below 1 µM; in series [1] it was 1 to 10 µM; in series [3], below 10 µM.
As to `N#Cc1cccn2c(-c3ccccc3)c(-c3ccc(CN4CCC(c5nnc(-c6ccc[nH]6)[nH]5)CC4)cc3)nc12` [Example 105, ′3-phenyl-2-[4-({4-[5-(1H-pyrrol-2-yl)-4H-1,2,4-triazol-3-yl]piperidin-1-yl}methyl)phenyl]imidazo[1,2-a]pyridine-8-carbonitrile], the IC50 in series [4] is below 1 µM; in series [5], below 10 µM.
